Source: article PMC12220852, “An adamantane‐based ligand as a novel chemical tool for thermosensory TRPM8 channel therapeutic modulation” (The Febs Journal, 2025)

Tests used:
hTRPM8 = biological target: T1, hTRPM8 (Homo sapiens, UniProt Q7Z2W7); test: Whole-cell patch-clamp of WS-12-evoked currents in HEK293 cells expressing hTRPM8; assay type: cell-based
T1 construct: expressed in transfected cells; host or cells: HEK293 (transient, Lipofectamine 3000)
Text: We first used patch‐clamp to investigate the potency and blockade mechanism of compound 23 inhibiting WS‐12 evoked ionic currents in hTRPM8‐HEK293 cells. […] This blockade activity was reversible as virtually all WS‐12‐evoked ionic current could be recovered upon washout (Fig. 3A, bottom panel), thus preventing a use‐dependent side effect.
To unveil the underlying mechanism of channel blockade (competitive vs noncompetitive) we evaluated the effect of the α‐acyloxy carboxamide 23 on WS‐12 activating potency. For this purpose, we obtained the WS‐12 dose response in the absence and presence of 80 nM compound 23 (corresponding to its IC50 value).
For this purpose, we run 100 ms voltage ramps from −120 to 120 mV activated by WS‐12 in the absence and presence of 80 nM α‐acyloxy carboxamide 23.
(§1) Recording through patch‐clamp techniques was performed on HEK293 cells cultured in DMEM GlutaMax with 10% FBS and 1% P/S. The cell lines were authenticated following the standardization of STR Profiling guidelines (ANSI/ATCC ASN‐0002‐2022) using the CLA Identifier Plus PCR Amplification Kit (Thermo Fisher‐A44660) to analyze 16 highly variant human STRs. The cells were confirmed to be mycoplasma‐free. These cells were transiently transfected with plasmids encoding hTRPV1, hTRPM8, or hTRPA1 using Lipofectamine 3000. Transfected cells were seeded on 12 mm Ø glass coverslips treated with poly‐L‐lysine solution and recorded 2 days post‐transfection. The intracellular pipette solution included (in mM) 150 NaCl, 3 MgCl2, 5 EGTA, and 10 HEPES, pH 7.2 with CsOH, while the extracellular solution contained (in mM) 150 NaCl, 6 CsCl, 1 MgCl2, 1.5 CaCl2, 10 glucose, and 10 HEPES, pH 7.4 with NaOH. An EPC‐10 amplifier with Patchmaster software was used in whole‐cell experiments. Patch pipettes, created from thin‐wall borosilicate capillary glass tubing, were pulled with a Micropipette puller to a final resistance of 2–8 MΩ when filled with the internal solution. Recordings were acquired at 10 kHz and low‐pass filtered at 3 kHz, discarding recordings with leak currents > 200pA or series resistance > 20 MΩ. In voltage‐clamp recordings, cells were held at a constant potential, and the application of modulators was carried out using a gravity‐driven perfusion system. Total currents were normalized to the first current peak evoked by the activating stimuli. To study the effect of compound 23 on TRPM8 voltage dependence, a voltage step protocol from −120 to 120 mV was used with 100 ms steps of 20 mV from a holding potential at 0 mV. Leak currents were not subtracted, and conductance was calculated using the equation: G = I/(V − V r), where I is the measured ionic current, V is the applied voltage, and V r is the reversal potential that for the ionic conditions used was set to 0 mV.
Dose–response relationships for WS‐12 channel activation were normalized to the response of the channel to a saturating concentration of the agonist. Similarly, dose–response curves for blockade activity were normalized with respect to the response in the absence of the blocker. The experimental data were fitted to the Hill equation: Y=Bottom+Top‐Bottom/(1+10^ligand−LogIC50orLogEC50) using PRISM 9 software. Top was fixed to 100, as the unblocked response or the maximal response for WS‐12.

[1] = biological target: T2, recombinant human TRPM8 stably expressed in HEK293 cells (hTRPM8) (Homo sapiens, UniProt Q7Z2W7); test: Ca2+ microfluorimetry screen for agonist/antagonist activity in hTRPM8-HEK293 cells; assay type: cell-based; details: agonists vs WS-12, antagonists vs WS-12 response, read-out: Efficacy (percentage of maximal activation or blockade)
T2 construct: expressed in transfected cells
T2 sequence (Q7Z2W7 whole entry): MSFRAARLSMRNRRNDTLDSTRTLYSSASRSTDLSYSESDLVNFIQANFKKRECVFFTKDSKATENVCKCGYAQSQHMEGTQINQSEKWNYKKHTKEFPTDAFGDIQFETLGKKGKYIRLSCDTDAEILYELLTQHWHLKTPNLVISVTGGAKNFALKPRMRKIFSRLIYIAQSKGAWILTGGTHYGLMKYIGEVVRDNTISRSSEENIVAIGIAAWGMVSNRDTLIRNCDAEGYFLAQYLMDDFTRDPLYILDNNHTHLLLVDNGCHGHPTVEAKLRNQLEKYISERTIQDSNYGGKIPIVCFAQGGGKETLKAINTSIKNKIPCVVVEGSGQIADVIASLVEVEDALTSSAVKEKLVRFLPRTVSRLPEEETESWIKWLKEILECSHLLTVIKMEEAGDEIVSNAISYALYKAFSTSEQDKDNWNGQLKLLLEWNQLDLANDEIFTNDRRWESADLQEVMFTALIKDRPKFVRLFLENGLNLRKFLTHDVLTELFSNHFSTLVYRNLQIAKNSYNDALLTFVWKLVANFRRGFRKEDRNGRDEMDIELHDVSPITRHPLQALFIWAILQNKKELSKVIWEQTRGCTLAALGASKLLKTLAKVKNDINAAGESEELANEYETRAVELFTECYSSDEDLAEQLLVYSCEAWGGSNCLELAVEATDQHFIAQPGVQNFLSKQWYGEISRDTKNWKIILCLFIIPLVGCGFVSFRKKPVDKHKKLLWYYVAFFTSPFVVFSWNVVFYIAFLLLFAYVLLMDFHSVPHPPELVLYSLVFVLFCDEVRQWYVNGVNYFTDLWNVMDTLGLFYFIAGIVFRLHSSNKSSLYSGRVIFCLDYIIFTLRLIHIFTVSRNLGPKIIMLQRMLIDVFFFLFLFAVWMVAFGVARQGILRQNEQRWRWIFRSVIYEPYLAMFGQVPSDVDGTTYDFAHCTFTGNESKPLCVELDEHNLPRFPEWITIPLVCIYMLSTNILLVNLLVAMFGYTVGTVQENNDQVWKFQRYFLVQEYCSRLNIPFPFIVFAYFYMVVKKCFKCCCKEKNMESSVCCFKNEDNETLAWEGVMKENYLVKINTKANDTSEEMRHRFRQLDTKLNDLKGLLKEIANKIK

[2] = biological target: T2, recombinant human TRPM8 stably expressed in HEK293 cells (hTRPM8); test: as above; assay type: cell-based; details: for Activity (agonist/antagonist) / EC50: hTRPM8-HEK293; for Activity (agonist/antagonist): agonism = compound-induced Ca2+ influx, antagonism = modulation of WS-12-induced Ca2+ influx; for EC50: half of channel activation, N = 3; for EC50 / Hill coefficient: mean ± SD; for Hill coefficient: hTRPM8-HEK293 Ca2+ microfluorimetry dose-response
Text: We first evaluated the series of compounds 20–29 synthesized using the Passerini‐Adamantane reaction. All compounds were screened for channel agonism and antagonism on recombinant human TRPM8 stably expressed in HEK293 cells (hTRPM8‐HEK293) with Ca^2+ microfluorimetry. […] Compound‐induced TRPM8‐mediated Ca^2+ influx was confirmed using untransfected HEK293 cells and the channel blocker AMTB. […] The concentration of compounds to reach half of channel activation (EC50) or to block half‐channel activity evoked by WS‐12 (IC50) are reported in Table 1, along with the percentage of maximal activation or blockade (Efficacy).
Assays were conducted to assess the channel activity of the recombinant hTRPM8 stably expressed in HEK‐293 cells. HEK‐293‐hTRPM8 cells were cultured in a monolayer using a DMEM GlutaMax with 10% FBS and 1% P/S and maintained at 37 °C in 5% CO2. For experiments, cells were prepared and seeded at the indicated densities. To evaluate compound effectiveness against hTRPM8 activity, microfluorometry‐based calcium flux assays were performed using Fluo‐4 NW Ca^2+ dye and fluorescence detection. HEK cell lines expressing hTRPM8 were seeded in 96‐well plates and incubated with the dye‐loading solution. Ion channel activity was measured using a plate reader, and fluorescence intensity changes were recorded following the addition of vehicle, compound at varying concentrations, and antagonist (10 μM AMTB). Data analysis included calculating the Z‐factor for each assay and normalizing compound effects to […]. Data were analyzed to determine the concentration exerting half‐maximal inhibition (IC50) or activation (EC50) of agonist‐induced calcium elevation, using GRAPHPAD PRISM8® software (Boston, MA, USA). All experiments were conducted in triplicate, and results are presented as mean ± standard deviation.

[3] = Metabolic stability and metabolite profile in mouse liver microsomes (MLM); assay type: in vitro ADME; details: phase I metabolites of compound 23 in MLM, LC-HRMS, estimated from total ion current
Method: Because of the lack of systemic activity of compound 23, we evaluated the in vitro plasmatic and hepatic metabolic stability. To this aim, compound 23 was exposed to mouse plasma and mouse liver microsome (MLM) fractions, and the residual substrate was measured after 1 h. Under these conditions, the residual substrate was about 97% and 90% in plasma and microsomes, respectively, denoting that this molecule suffers from mild hydrolysis of the ester group.
Metabolic biotransformation of compound 23 was investigated by tandem high‐resolution mass spectrometry using the software COMPOUND DISCOVERER 3.2™.
The standard incubation mixture (250 μL final volume) was carried out in a 50 mM Tris (tris[hydroxymethyl]aminomethane) buffer (pH 7.4) containing 150 mM KCl, […], 3.3 mM MgCl2, 1.3 mM NADPNa2, 3.3 mM glucose 6‐phosphate, 0.4 units·mL^−1 glucose 6‐phosphate dehydrogenase, acetonitrile as cosolvent (1% of total volume), and the substrate (50 μM). After pre‐equilibration of the mixture, an appropriate volume of MLM suspension was added to give a final protein concentration of 1.0 mg·mL^−1. The mixture was shaken for 60 min at 37 °C using a horizontal shaking thermostatic bath while protecting the samples from light. Control incubations were carried out without the presence of substrate, or NADPH regenerating system, or microsomes. Each incubation was stopped by the addition of 250 μL of ice‐cold acetonitrile, vortexed, and centrifuged at 13 000 r.p.m. for 5 min [68]. The supernatants were analyzed by LC‐UV and LC‐HRMS equipment (see Tables S1 and S2, Fig. S79 for full parameters setting in the Supporting Information).
The metabolic stability of the compound 23 was determined in vitro by measuring the residual peak area after incubation by LC‐UV analysis. Samples were further processed by LC‐HRMS equipment for metabolite profiling. Raw data files were processed using both XCALIBUR® and COMPOUND DISCOVERER 3.2® software (Thermo Scientific) using a customized workflow for the detection and identification of the expected and unknown metabolites (Fig. S80).

hTRPA1 = biological target: T3, hTRPA1 (Homo sapiens, UniProt O75762); test: Whole-cell patch-clamp of AITC-evoked currents in HEK293 cells expressing hTRPA1; assay type: cell-based; details: 5 μM compound, 60 μM AITC, −60 mV
T3 construct: expressed in transfected cells; host or cells: HEK293 (transient, Lipofectamine 3000)
T3 sequence (O75762 whole entry): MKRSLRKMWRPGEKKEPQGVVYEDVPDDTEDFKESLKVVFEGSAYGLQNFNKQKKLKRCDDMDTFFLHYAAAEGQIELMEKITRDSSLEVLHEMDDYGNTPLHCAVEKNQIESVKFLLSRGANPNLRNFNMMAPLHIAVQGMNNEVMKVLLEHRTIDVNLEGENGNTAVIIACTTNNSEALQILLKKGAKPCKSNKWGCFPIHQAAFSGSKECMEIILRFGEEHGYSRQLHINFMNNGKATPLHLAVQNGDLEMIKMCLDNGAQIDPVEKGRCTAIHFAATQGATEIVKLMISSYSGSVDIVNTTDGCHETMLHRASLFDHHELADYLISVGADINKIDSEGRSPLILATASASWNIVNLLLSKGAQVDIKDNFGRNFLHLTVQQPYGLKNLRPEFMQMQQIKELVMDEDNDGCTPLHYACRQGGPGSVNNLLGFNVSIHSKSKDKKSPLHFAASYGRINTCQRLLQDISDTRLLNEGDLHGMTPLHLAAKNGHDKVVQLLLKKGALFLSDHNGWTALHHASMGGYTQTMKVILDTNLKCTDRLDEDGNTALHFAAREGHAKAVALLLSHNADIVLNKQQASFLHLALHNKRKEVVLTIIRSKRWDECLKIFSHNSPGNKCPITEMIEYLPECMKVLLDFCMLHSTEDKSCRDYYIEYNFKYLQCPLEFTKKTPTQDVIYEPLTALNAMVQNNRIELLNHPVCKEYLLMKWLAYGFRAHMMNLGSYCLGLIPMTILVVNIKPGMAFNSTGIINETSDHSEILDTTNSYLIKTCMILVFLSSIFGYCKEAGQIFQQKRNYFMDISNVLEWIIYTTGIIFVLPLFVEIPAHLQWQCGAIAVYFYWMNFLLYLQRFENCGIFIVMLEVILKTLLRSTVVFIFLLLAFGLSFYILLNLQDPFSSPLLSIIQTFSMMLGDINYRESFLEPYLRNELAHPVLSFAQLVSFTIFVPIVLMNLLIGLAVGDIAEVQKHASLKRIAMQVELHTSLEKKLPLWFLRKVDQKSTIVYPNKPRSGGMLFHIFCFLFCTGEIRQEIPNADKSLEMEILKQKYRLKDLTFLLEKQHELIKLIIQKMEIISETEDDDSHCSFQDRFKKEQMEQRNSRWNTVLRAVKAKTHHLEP
Method: To evaluate receptor selectivity, we investigated the activity of compound 23 on recombinant hTRPV1 and hTRPA1 channels recombinantly expressed in HEK293 cells (Fig. 4). We choose these thermosensory channels because of their structural similarity and expression in peripheral nociceptive terminals. In addition, some ligand cross‐interaction within these channels has been reported.
as §1, with “Total currents were normalized to the first current peak evoked by the activating stimuli. To study the effect of compound 23 on TRPM8 voltage dependence, a voltage step protocol from −120 to 120 mV was used with 100 ms steps of 20 mV from a holding potential at 0 mV.” left out, “mV. […]” for “mV.”

T1 sequence (Q7Z2W7 whole entry): as the sequence (Q7Z2W7 whole entry) above

| SMILES | Emax [1] | Activity (agonist/antagonist) [2] | EC50 [2] | Hill coefficient [2] | other results |
| --- | --- | --- | --- | --- | --- |
| Cc1cccc(COc2ccccc2C(=O)N(CCCN)Cc2cccs2)c1 [AMTB, N‐(3‐aminopropyl)‐2‐{[(3‐methylphenyl)methyl]oxy}(20)‐N‐(2‐thienylmethyl)benzamide, reference compound] | – | – | – | – | voltage dependency of channel blockade (hTRPM8; voltage steps −120 to 120 mV, 0.08 μM compound 23, 10 μM AMTB): not voltage dependent |
| O=C(CN1CCN(C(=O)Cc2ccccc2)CC1)NC12CC3CC(CC(C3)C1)C2 [Compound 44, N‐((3S,5S,7S)‐adamantan‐1‐yl)‐2‐(4‐(2‐phenylacetyl)piperazin‐1‐yl)acetamide] | 69% | Agonist | 9.6 ± 1.5 µM | 0.7 ± 4.0 | – |
| O=C(CO)NC12CC3CC(CC(C3)C1)C2 [Compound M1a] | – | – | – | – | Metabolite relative abundancy [3]: 18.7% |
| CC(C)c1ccc(NC(=O)Cn2cnc3c2c(=O)n(C)c(=O)n3C)cc1 [HC030031, 2‐(1,3‐Dimethyl‐2,6‐dioxo‐1,2,3,6‐tetrahydro‐7H‐purin‐7‐yl)‐N‐(4‐isopropylphenyl)acetamide, reference compound] | – | – | – | – | block of hTRPA1‐evoked (AITC) current (hTRPA1): completely abrogated |
| COc1ccc(NC(=O)[C@@H]2C[C@H](C)CC[C@H]2C(C)C)cc1 [WS‐12, (1R,2S,5R)‐N‐(4‐methoxyphenyl)‐5‐methyl‐2‐(propan‐2‐yl)cyclohexane‐1‐carboxamide, reference compound] | – | – | – | – | WS‐12 Hill coefficient in the absence of compound 23 (hTRPM8; patch-clamp): 1.17; WS‐12 Hill coefficient in the presence of compound 23 (hTRPM8; patch-clamp, 0.08 μM compound 23): 0.95; EC50 (hTRPM8; patch-clamp, n = 18, read-out: WS‐12 EC50 in the absence of compound 23): 3 µM |

The next lines start with results.

| Emax [1] | Activity (agonist/antagonist) [2] | EC50 [2] | Hill coefficient [2] | SMILES | other results |
| --- | --- | --- | --- | --- | --- |
| 82% | TRPM8 agonist | 9.3 ± 1.5 µM | 0.6 ± 1.8 | O=C(CN1CCN(C(=O)C2CCCC2)CC1)NC12CC3CC(CC(C3)C1)C2 [Compound 43, N‐((3S,5S,7S)‐adamantan‐1‐yl)‐2‐(4‐(cyclopentanecarbonyl)piperazin‐1‐yl)acetamide] | fold lower agonist potency compared with α‐aminoacyl amide 32 ([2]; hTRPM8-HEK293, EC50 comparison): > 10 fold |
| 54% | Agonist | 2.3 ± 1.6 µM | 0.7 ± 2.1 | CC(=O)N1CCN(CC(=O)NC23CC4CC(CC(C4)C2)C3)CC1 [Compound 45, 2‐(4‐acetylpiperazin‐1‐yl)‐N‐((3S,5S,7S)‐adamantan‐1‐yl)acetamide] | – |
